The term IC50 denotes the concentration that gives 50% inhibition. High values mean weaker potency, low ones greater potency.

Some results are limits rather than exact numbers.

From ChEMBL document CHEMBL1145147, “Cytotoxic neolignans: an SAR study” (Bioorg Med Chem Lett, 2005) come the findings set out here.

The test relates to HepG2. The experiment in a line: Cytotoxicity of compound against human liver tumor cell line (Hep-G2) was determined. It is filed as functional, cell-based.
As for `C=CCc1ccc(OC)c(-c2cc(CC=C)ccc2OC)c1`, the IC50 was greater than 200 µM. Regarding `CCCc1ccc(O)c(-c2ccc(O)c(CCC)c2)c1`, the IC50 was 13.1 µM. In the case of `C=CCc1ccc(O)c(-c2ccc(O)c(CC=C)c2)c1` [HONOKIOL], the IC50 was determined as 16.5 µM. `C=CCc1cc(OC)c(O)c(-c2cc(CC=C)cc(OC)c2O)c1` had an IC50 of 117 µM. Consider `C=CCc1ccc(Oc2cc(CC=C)ccc2O)cc1` [ISOMAGNOLOL], for which the IC50 amounted to 51.8 µM. On to `C=CCc1cccc(-c2cccc(CC=C)c2O)c1O`, for which the midpoint of inhibition, the IC50, lay at 42.1 µM.

Consider `Oc1ccccc1-c1ccccc1O`, for which the IC50 was greater than 200 µM.

Molecule `C=CCc1ccc(O)c(-c2cc(CC=C)ccc2O)c1` [MAGNOLOL] registered an IC50 of 32 µM. The figure for `C=CCc1ccc(O)cc1` [CHAVICOL] is greater than 200 µM; for `C=CCc1cc(O)c(O)c(-c2cc(CC=C)cc(O)c2O)c1` it is 104 µM; for `CCCc1ccc(O)c(-c2cc(CCC)ccc2O)c1` it is 23.4 µM. The value for `C/C=C/c1ccc(O)c(-c2cc(/C=C/C)ccc2O)c1` was 38 µM.
